Where “and” joins values, the source holds several entries; their conditions need not be identical. Equal entries are not always repeated.
Legend:
SW620 [1] = assay: cell viability relative to vehicle (resazurin, 96 h); higher = more viable
Description: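 SW620 WT or MTHFD2-/- cells were treated for 96 h with a compound dilution series (log10 M) in RPMI with normal or dialysed FBS. Viability was read by resazurin and is given as % of vehicle.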

SW620 [2] = assay: cell viability relative to lowest-dose well (resazurin, 96 h); higher = more viable; details: RPMI + 10% FBS
Method in brief: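 HCT116 (500 cells/well) or SW620 (1,000 cells/well) cells were seeded in 50 µl RPMI with 10% FBS plus a metabolite supplement in 384-well plates. Compounds were dispensed from 10 mM DMSO stocks as dilution series, and plates were incubated 96 h at 37 °C, 5% CO2. Viability was read as resazurin (10 µg ml^−1) conversion to resorufin after 5 h, by fluorescence at 595 nm. Values are percent of the lowest-dose well, with independent replicate cultures.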

CN(Cc1cnc2nc(N)nc(N)c2n1)c1ccc(C(=O)N[C@@H](CCC(=O)O)C(=O)O)cc1 [methotrexate]
Details | cell viability
SW620 [1], log10 compound concentration (M): -8.81697, supplement / serum: RPMI + Dialyzed FBS, base medium: RPMI-1640 | 86.4%
SW620 [1], log10 compound concentration (M): -8.81697, supplement / serum: RPMI + Normal FBS, base medium: RPMI-1640 | 97.4%
SW620 [1], log10 compound concentration (M): -8.81697, supplement / serum: Vehicle, base medium: RPMI + dialysed FBS | 119%
SW620 [1], log10 compound concentration (M): -9.29409, supplement / serum: 50 μM Hypoxanthine + 50 μM Thymidine, base medium: RPMI + dialysed FBS | 93.5%
SW620 [1], log10 compound concentration (M): -9.29409, supplement / serum: Hypoxanthine + AICAr 10μM, base medium: RPMI + dialysed FBS | 118%
SW620 [1], log10 compound concentration (M): -9.29409, supplement / serum: Hypoxanthine + AICAr 30μM, base medium: RPMI + dialysed FBS | 105%
SW620 [1], log10 compound concentration (M): -9.29409, supplement / serum: Hypoxanthine + AICAr 50μM, base medium: RPMI + dialysed FBS | 113%
SW620 [1], log10 compound concentration (M): -9.29409, supplement / serum: Hypoxanthine + AICAr 100μM, base medium: RPMI + dialysed FBS | 102%
SW620 [1], log10 compound concentration (M): -9.29409, supplement / serum: Hypoxanthine, base medium: RPMI + dialysed FBS | 97.3%
SW620 [1], log10 compound concentration (M): -9.29409, supplement / serum: RPMI + Dialyzed FBS + 50μM Hypoxanthine, base medium: RPMI-1640 | 96.1%
SW620 [1], log10 compound concentration (M): -9.29409, supplement / serum: RPMI + Dialyzed FBS, base medium: RPMI-1640 | 98.9%
SW620 [1], log10 compound concentration (M): -9.29409, supplement / serum: RPMI + Normal FBS, base medium: RPMI-1640 | 99.1%
SW620 [1], log10 compound concentration (M): -9.29409, supplement / serum: Vehicle, base medium: RPMI + dialysed FBS | 112%
SW620 [1], log10 compound concentration (M): -9.77121, supplement / serum: Hypoxanthine + AICAr 10μM, base medium: RPMI + dialysed FBS | 112.06%
SW620 [1], log10 compound concentration (M): -9.77121, supplement / serum: Hypoxanthine + AICAr 30μM, base medium: RPMI + dialysed FBS | 94.8%
SW620 [1], log10 compound concentration (M): -9.77121, supplement / serum: Hypoxanthine + AICAr 50μM, base medium: RPMI + dialysed FBS | 120.1%
SW620 [1], log10 compound concentration (M): -9.77121, supplement / serum: Hypoxanthine + AICAr 100μM, base medium: RPMI + dialysed FBS | 98.9%
SW620 [1], log10 compound concentration (M): -9.77121, supplement / serum: Hypoxanthine, base medium: RPMI + dialysed FBS | 101%
SW620 [1], log10 compound concentration (M): -9.77121, supplement / serum: RPMI + Dialyzed FBS + 50μM Hypoxanthine, base medium: RPMI-1640 | 94.8%
SW620 [1], log10 compound concentration (M): -9.77121, supplement / serum: RPMI + Dialyzed FBS, base medium: RPMI-1640 | 96.3%
SW620 [1], log10 compound concentration (M): -9.77121, supplement / serum: RPMI + Normal FBS, base medium: RPMI-1640 | 88.1%
SW620 [1], log10 compound concentration (M): -9.77121, supplement / serum: Vehicle, base medium: RPMI + dialysed FBS | 114%
SW620 [2], 0.001 µM, metabolite supplement: 1uM folinic acid | 101%
SW620 [2], 0.001 µM, metabolite supplement: 50uM thymidine | 95.8%
SW620 [2], 0.001 µM, metabolite supplement: 50uM thymidine + 1uM folinic acid | 102%
SW620 [2], 0.001 µM, metabolite supplement: vehicle | 96.5%
SW620 [2], 0.00278 µM, metabolite supplement: 1uM folinic acid | 101%
SW620 [2], 0.00278 µM, metabolite supplement: 50uM thymidine | 96.1%
SW620 [2], 0.00278 µM, metabolite supplement: 50uM thymidine + 1uM folinic acid | 102%
SW620 [2], 0.00278 µM, metabolite supplement: vehicle | 93.7%
SW620 [2], 0.00774 µM, metabolite supplement: 1uM folinic acid | 100%
SW620 [2], 0.00774 µM, metabolite supplement: 50uM thymidine | 73.1%
SW620 [2], 0.00774 µM, metabolite supplement: 50uM thymidine + 1uM folinic acid | 101%
SW620 [2], 0.00774 µM, metabolite supplement: 50uM thymidine + 250uM folic acid | 98.6%
SW620 [2], 0.00774 µM, metabolite supplement: 250uM folic acid | 98.4%
SW620 [2], 0.00774 µM, metabolite supplement: vehicle | 70.1%
SW620 [2], 0.0215 µM, metabolite supplement: 1uM folinic acid | 100%
SW620 [2], 0.0215 µM, metabolite supplement: 50uM thymidine | 55%
SW620 [2], 0.0215 µM, metabolite supplement: 50uM thymidine + 1uM folinic acid | 103%
SW620 [2], 0.0215 µM, metabolite supplement: 50uM thymidine + 250uM folic acid | 94.3%
SW620 [2], 0.0215 µM, metabolite supplement: 250uM folic acid | 89.1%
SW620 [2], 0.0215 µM, metabolite supplement: vehicle | 39.2%
SW620 [2], 0.0599 µM, metabolite supplement: 1uM folinic acid | 96.1%
SW620 [2], 0.0599 µM, metabolite supplement: 50uM thymidine | 30.1%
SW620 [2], 0.0599 µM, metabolite supplement: 50uM thymidine + 1uM folinic acid | 102%
SW620 [2], 0.0599 µM, metabolite supplement: 50uM thymidine + 250uM folic acid | 79.3%
SW620 [2], 0.0599 µM, metabolite supplement: 250uM folic acid | 78%
SW620 [2], 0.0599 µM, metabolite supplement: vehicle | 29.9% and 27.9%
SW620 [2], 0.167 µM, metabolite supplement: 1uM folinic acid | 85.3%
SW620 [2], 0.167 µM, metabolite supplement: 50uM thymidine | 26.8% and 27.8%
SW620 [2], 0.167 µM, metabolite supplement: 50uM thymidine + 1uM folinic acid | 85.4%
SW620 [2], 0.167 µM, metabolite supplement: 50uM thymidine + 250uM folic acid | 45.2%
SW620 [2], 0.167 µM, metabolite supplement: 250uM folic acid | 47.8%
SW620 [2], 0.167 µM, metabolite supplement: vehicle | 32% and 27.2%
SW620 [2], 0.464 µM, metabolite supplement: 1uM folinic acid | 59.2%
SW620 [2], 0.464 µM, metabolite supplement: 50uM thymidine | 27.5%
SW620 [2], 0.464 µM, metabolite supplement: 50uM thymidine + 1uM folinic acid | 68.2%
SW620 [2], 0.464 µM, metabolite supplement: 50uM thymidine + 250uM folic acid | 37.4%
SW620 [2], 0.464 µM, metabolite supplement: 250uM folic acid | 29.7%
SW620 [2], 0.464 µM, metabolite supplement: vehicle | 27.4%
SW620 [2], 1.29 µM, metabolite supplement: 1uM folinic acid | 51.8%
SW620 [2], 1.29 µM, metabolite supplement: 50uM thymidine | 26%
SW620 [2], 1.29 µM, metabolite supplement: 50uM thymidine + 1uM folinic acid | 49.2%
SW620 [2], 1.29 µM, metabolite supplement: 50uM thymidine + 250uM folic acid | 37.2%
SW620 [2], 1.29 µM, metabolite supplement: 250uM folic acid | 27.5%
SW620 [2], 1.29 µM, metabolite supplement: vehicle | 26.9%
SW620 [2], 3.59 µM, metabolite supplement: 1uM folinic acid | 48.7%
SW620 [2], 3.59 µM, metabolite supplement: 50uM thymidine | 26.7%
SW620 [2], 3.59 µM, metabolite supplement: 50uM thymidine + 1uM folinic acid | 43.4%
SW620 [2], 3.59 µM, metabolite supplement: 50uM thymidine + 250uM folic acid | 35.5%
SW620 [2], 3.59 µM, metabolite supplement: 250uM folic acid | 27.3%
SW620 [2], 3.59 µM, metabolite supplement: vehicle | 25.7%
SW620 [2], 10 µM, metabolite supplement: 1uM folinic acid | 31.6%
SW620 [2], 10 µM, metabolite supplement: 50uM thymidine | 26.6%
SW620 [2], 10 µM, metabolite supplement: 50uM thymidine + 1uM folinic acid | 39.9%
SW620 [2], 10 µM, metabolite supplement: 50uM thymidine + 250uM folic acid | 35.5%
SW620 [2], 10 µM, metabolite supplement: 250uM folic acid | 27.3%
SW620 [2], 10 µM, metabolite supplement: vehicle | 26%
